Test results reported in US9067937B2 (priority 2012, dated 2015).
Where a name gives a salt, the structure may show the parent alone. Read-outs that look alike come from different tables or passages of the source.

Assays:
[1] = target: MELK (Homo sapiens, UniProt Q14680); assay: Kinase assay (IMAP fluorescence polarization, FITC-labeled histone H3 peptide); assay type: biochemical; settings: 50 micro-M ATP
Protocol: MELK activity was determined in the presence or absence of compounds using fluorescein isothiocyanate-labeled (FITC-labeled) histone H3 peptide as a substrate. […] The serially diluted compounds, 0.8 ng/micro-L […] (Carna Biosciences) and 100 nM FITC-labeled histone H3 peptide were reacted in a reaction buffer (20 mM HEPES, 0.01% Tween-20, 0.3 mM MgCl2, 2 mM dithiothreitol, 50 micro-M ATP, pH 7.4) at room temperature for 1 hour. The reaction was stopped by the addition of three fold assay volume of progressive binding solution. […] IC50 values were calculated by nonlinear four parameter fit using SigmaPlot, version 10.0 (Systat Software, Inc.).

[2] = tested on: 22Rv1 cells; assay: Cell-based assay, anti-proliferative activity (Cell Counting Kit-8, 72 hours); parameters: species or system human; settings: read-out: IC50 (μM) (22Rvl)
Protocol: (§1) Active candidate inhibitors against MELK were evaluated for their target-specific cytotoxicity using 22Rv1, T47D, A549, DU4475 and HT-1197 cells was used for negative control. 100 micro-L of cell suspension was seeded onto 96-well microtiter plate (ViewPlate-96FTC, PerkinElmer). The initial cell concentration of 22Rv1, T47D, A549, DU4475, and HT1197 were 3,000 cells/well, 2,000 cells/well and 2,500 cells/well, respectively. Cellular growth was determined using Cell Counting Kit-8 (DOJINDO) at 72 hours after the exposure of the candidate inhibitors. […] Accurate IC50 values were calculated as described previously.

[3] = tested on: A549 cells; assay: as above; parameters: species or system human; settings: read-out: IC50 (μM) (A549)
Protocol: as §1

[4] = tested on: DU4475 cells; assay: as above; parameters: species or system human; settings: read-out: IC50 (μM) (DU4475)
Protocol: as §1

[5] = tested on: T47D cells; assay: as above; parameters: species or system human; settings: read-out: IC50 (μM) (T47D)
Protocol: as §1

[6] = tested on: HT1197 cells; assay: Cell-based assay, anti-proliferative activity, MELK-negative control (Cell Counting Kit-8, 72 hours); parameters: species or system human; settings: read-out: IC50 (μM) (HTll97)
Protocol: as §1, with “100” for “Active candidate inhibitors against MELK were evaluated for their target-specific cytotoxicity using 22Rv1, T47D, A549, DU4475 and HT-1197 cells was used for negative control. 100”

[7] = HT1197 cells (MELK-negative control), 72 hours

MELK, sequence (Q14680 whole entry, looked up): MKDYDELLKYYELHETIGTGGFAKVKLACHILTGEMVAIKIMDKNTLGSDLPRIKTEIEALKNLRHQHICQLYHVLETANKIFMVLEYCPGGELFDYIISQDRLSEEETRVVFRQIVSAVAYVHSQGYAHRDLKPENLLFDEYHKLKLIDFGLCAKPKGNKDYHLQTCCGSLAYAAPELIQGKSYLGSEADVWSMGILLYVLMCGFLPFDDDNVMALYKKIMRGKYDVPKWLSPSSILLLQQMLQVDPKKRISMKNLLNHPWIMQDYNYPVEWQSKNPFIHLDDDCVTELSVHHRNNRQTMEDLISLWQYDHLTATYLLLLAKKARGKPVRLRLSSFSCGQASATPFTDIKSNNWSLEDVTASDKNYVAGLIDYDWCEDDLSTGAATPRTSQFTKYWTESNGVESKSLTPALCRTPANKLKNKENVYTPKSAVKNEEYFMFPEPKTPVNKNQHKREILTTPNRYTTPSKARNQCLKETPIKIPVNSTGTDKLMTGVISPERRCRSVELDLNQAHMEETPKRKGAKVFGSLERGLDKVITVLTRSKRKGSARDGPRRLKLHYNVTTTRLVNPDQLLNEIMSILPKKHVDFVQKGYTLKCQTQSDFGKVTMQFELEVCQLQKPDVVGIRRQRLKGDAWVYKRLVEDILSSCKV

| Compound | IC50 [1] | IC50 ([2]; Homo sapiens, 22Rv1, 72 h) | IC50 ([3]; Homo sapiens, A549, 72 h) | IC50 ([4]; Homo sapiens, DU-4475, 72 h) | IC50 ([5]; Homo sapiens, T47D, 72 h) | IC50 ([6]; Homo sapiens, HT1197, 72 h) | IC50 ([2]; 22Rv1 cells, 72 hours) | IC50 ([3]; A549 cells, 72 hours) | IC50 ([4]; DU4475 cells, 72 hours) | IC50 ([5]; T47D cells, 72 hours) | IC50 [6, 7] |
| --- | --- | --- | --- | --- | --- | --- | --- | --- | --- | --- | --- |
| CC(=O)c1cnc2ccc(-c3cc(F)c(O)c(Cl)c3)nc2c1Nc1ccc(N2CCC[C@@H](N)C2)nc1 [Example 96, (R)-1-{4-[6-(3-Aminopiperidin-1-yl)pyridin-3-ylamino]-6-(3-chloro-5-fluoro-4-hydroxyphenyl)-1,5-naphthyridin-3-yl}ethanone] | 0.0036 µM | 0.026 µM | 0.035 µM | 0.024 µM | 0.018 µM | 0.43 µM | – | – | – | – | – |
| CC(=O)c1cnc2ccc(-c3cc(F)c(O)c(Cl)c3)nc2c1N[C@H]1CC[C@H](CN2CCN(C)CC2)CC1 [Example 68, 1-(6-(3-Chloro-5-fluoro-4-hydroxyphenyl)-4-{trans-4-[4-methylpiperazin-1-yl)methyl]-cyclohexylamino}-1,5-naphthyridin-3-yl)ethanone trihydrochloride] | 0.0026 µM | 0.039 µM | 0.026 µM | 0.012 µM | 0.012 µM | 0.11 µM | – | – | – | – | – |
| CC(=O)c1cnc2ccc(-c3cc(Cl)c(O)c(Cl)c3)nc2c1Nc1ccc(N2CCC[C@H](N)C2)nc1 [Example 71, (S)-1-(4-{[6-(3-Aminopiperidin-1-yl)pyridin-3-yl]amino}-6-(3,5-dichloro-4-hydroxyphenyl)-1,5-naphthyridin-3-yl)ethanone trihydrochloride] | 0.0005 µM | 0.014 µM | 0.09 µM | 0.008 µM | 0.0074 µM | 3.4 µM | – | – | – | – | – |
| 1-[6-(3,5-Dichloro-4-hydroxyphenyl)-4-(trans-4-hydroxycyclohexylamino)-1,5-naphthyridin-3-yl]-ethanone hydrochloride [Example 91] | 0.015 µM | – | – | – | – | – | 0.072 µM | 0.048 µM | 0.016 µM | 0.038 µM | 0.33 µM |
| CC(=O)c1cnc2ccc(-c3cc(F)c(O)c(Cl)c3)nc2c1N[C@H]1CC[C@H](N)CC1 [Example 67, 1-{4-[trans-(4-Aminocyclohexyl)amino]-6-(3-chloro-5-fluoro-4-hydroxyphenyl)-1,5-naphthyridin-3-yl}ethanone dihydrochloride] | 0.0012 µM | 0.0061 µM | 0.022 µM | 0.0012 µM | 0.0019 µM | 2.8 µM | – | – | – | – | – |
| CC(=O)c1cnc2ccc(-c3cc(Cl)c(O)c(Cl)c3)nc2c1Nc1cnn(C2CCN(C)CC2)c1 [Example 33, 1-[6-(3,5-Dichloro-4-hydroxyphenyl)-4-[1-(1-methylpiperidin-4-yl)-1H-pyrazol-4-ylamino]-1,5-naphthyridin-3-yl]ethanone dihydrochloride] | 0.0078 µM | 0.64 µM | 0.93 µM | 0.34 µM | 0.35 µM | 100 µM | – | – | – | – | – |
| (S)-(4-{[6-(3-aminopiperidin-1- yl)pyridin-3-yl]amino}-6-(3-chloro-5- fluoro-4-hydroxyphenyl)-1,5- naphthyridin-3- yl)(cyclobutyl)methanone [Example 213] | 0.0011 µM | – | – | – | – | – | 0.0071 µM | 0.029 µM | 0.003 µM | 0.0043 µM | 1.7 µM |
| COc1cc(-c2ccc3ncc(C(C)=O)c(N[C@H]4CC[C@H](CN(C)C)CC4)c3n2)cc(Cl)c1O [Example 8, 1-(6-(3-Chloro-4-hydroxy-5-methoxyphenyl)-4-{trans-4-[(dimethylamino)methyl]cyclohexyl-amino}-1,5-naphthyridin-3-yl)ethanone dihydrochloride] | 0.0015 µM | 0.044 µM | 0.024 µM | 0.0064 µM | 0.013 µM | 0.24 µM | – | – | – | – | – |
| CN(C)C[C@H]1CC[C@H](Nc2c(C(=O)C3CC3)cnc3ccc(-c4cc(Cl)c(O)c(Cl)c4)nc23)CC1 [Example 4, Cyclopropyl(6-(3,5-dichloro-4-hydroxyphenyl)-4-{trans-4-[(dimethylamino)methyl]-cyclohexylamino}-1,5-naphthyridin-3-yl)methanone dihydrochloride] | 0.0005 µM | 0.0064 µM | 0.0062 µM | 0.0026 µM | 0.0055 µM | 0.036 µM | – | – | – | – | – |
| CC(=O)c1cnc2ccc(-c3cc(Cl)c(O)c(Cl)c3)nc2c1Nc1ccc(CN2CCN(C)CC2)cc1 [Example 34, 1-(6-(3,5-Dichloro-4-hydroxyphenyl)-4-(4-((4-methylpiperazin-1-yl)methyl)-phenylamino)-1,5-naphthyridin-3-yl)ethanone trihydrochloride] | 0.0061 µM | 0.21 µM | 0.19 µM | 0.096 µM | 0.11 µM | 1.6 µM | – | – | – | – | – |
| CC(=O)c1cnc2ccc(-c3cc(Cl)c(O)c(Cl)c3)nc2c1N[C@H]1CC[C@H](CO)CC1 [Example 43, 1-(6-{3,5-Dichloro-4-hydroxyphenyl)-4-[trans-4-(hydroxymethyl)cyclohexyl]amino}-1,5-naphthyridin-3-yl)ethanone hydrochloride] | 0.0031 µM | 0.085 µM | 0.057 µM | 0.019 µM | 0.024 µM | 0.64 µM | – | – | – | – | – |
| CC(=O)c1cnc2ccc(-c3cc(Cl)c(O)c(Cl)c3)nc2c1N[C@H]1CC[C@@H](CN(C)C)CC1 [Example 94, 1-{6-(3,5-Dichloro-4-hydroxyphenyl)-4-({cis-4-[(dimethylamino)methyl]-cyclohexyl}amino)-1,5-naphthyridin-3-yl}ethanone dihydrochloride] | – | 0.028 µM | 0.039 µM | 0.0073 µM | 0.02 µM | 0.25 µM | – | – | – | – | – |
| CC(=O)c1cnc2ccc(Cl)nc2c1N[C@H]1CC[C@H](CN(C)C)CC1 [Example 1, 1-(6-Chloro-4-{trans-4-[(dimethylamino)methyl]cyclohexylamino}-1,5-naphthyridin-3-yl)-ethanone] | 0.31 µM | 5 µM | 2.7 µM | 2.5 µM | 5.3 µM | 10 µM | – | – | – | – | – |
| CC(C)C(=O)c1cnc2ccc(-c3cc(F)c(O)c(Cl)c3)nc2c1N[C@H]1CC[C@H](CN(C)C)CC1 [Example 217, dihydrochloride] | 0.0018 µM | – | 0.021 µM | – | – | 0.055 µM | – | – | – | – | – |
| CC(=O)c1cnc2ccc(-c3cc(Cl)c(O)c(Cl)c3)nc2c1NC[C@H]1CC[C@H](N(C)C)CC1 [Example 89, dihydrochloride] | – | 0.028 µM | 0.041 µM | 0.0063 µM | 0.023 µM | 0.9 µM | – | – | – | – | – |
| [2H]C([2H])([2H])N(C[C@H]1CC[C@H](Nc2c(C(C)=O)cnc3ccc(-c4cc(Cl)c(O)c(Cl)c4)nc23)CC1)C([2H])([2H])[2H] [Example 28, 1-(6-(3,5-Dichloro-4-hydroxyphenyl)-4-(trans-4-((dimethylamino-d6)methyl)-cyclohexylamino)-1,5-naphthyridin-3-yl)ethanone dihydrochloride] | – | 0.0052 µM | 0.006 µM | 0.0022 µM | 0.004 µM | 0.14 µM | – | – | – | – | – |
| CC(C)C(=O)c1cnc2ccc(-c3cc(Cl)c(O)c(Cl)c3)nc2c1N[C@H]1CC[C@H](CN(C)C)CC1 [Example 216, 1-[6-(3,5-dichloro-5-4-hydroxyphenyl)-4-({trans-4-[(dimethylamino)methyl]cyclohexyl}amino)-1,5-naphthyridin-3-yl]-2-methylpropan-1-one dihydrochloride] | 0.0019 µM | – | 0.012 µM | – | – | 0.025 µM | – | – | – | – | – |
| CC(=O)c1cnc2ccc(-c3cc(F)c(O)c(Cl)c3)nc2c1N[C@H]1CC[C@H](NC(=O)[C@@H]2CCCN2)CC1 [Example 76, (S)—N-{4-[3-Acetyl-6-(3-chloro-5-fluoro-4-hydroxyphenyl)-1,5-naphthyridin-trans-4-ylamino]-cyclohexyl}pyrrolidine-2-carboxamide dihydrochloride] | – | 0.073 µM | 0.32 µM | 0.019 µM | 0.03 µM | 8.7 µM | – | – | – | – | – |
